Experimental data as given in US8604028B2, “Furopyridinyl-substituted 1,4-dihydropyridine derivatives and methods of use thereof” (Bayer Intellectual Property GmbH, priority 2009, dated 2013).

Target: N-terminally His6-tagged recombinant kinase domain of the human c-Met (amino acids 960-1390) (Homo sapiens (Human), UniProt P08581)
Test: c-Met Receptor Tyrosine Kinase Homogeneous Time-Resolved Fluorescence Assay (Alternative Format)
Format: biochemical
Conditions: c-Met kinase inhibition, HTRF format, ATP 10 μM
Description: c-Met Receptor Tyrosine Kinase Homogeneous Time-Resolved Fluorescence Assay (Alternative Format):
The N-terminally His6-tagged recombinant kinase domain of the human c-Met (amino acids 960-1390), expressed in insect cells (SF21) and purified by Ni-NTA affinity chromatography and consecutive size exclusion chromatography (Superdex 200), is used. Alternatively, commercially available c-Met (Millipore) can be used. As substrate for the kinase reaction, the biotinylated poly-Glu,Tyr (4:1) copolymer (#61GT0BLC, Cis Biointernational, Marcoule, France) is used.
For the assay, 50 nL of a 100-fold concentrated solution of the test compound in DMSO is pipetted into a black low-volume 384-well microtiter plate (Greiner Bio-One, Frickenhausen, Germany). […]
The resulting mixture is incubated for 1 h at 22° C. to allow the binding of the biotinylated phosphorylated peptide to the streptavidine-XLent and the PT66-Eu-chelate. Subsequently, the amount of phosphorylated substrate is evaluated by measurement of the resonance energy transfer from the PT66-Eu-chelate to the streptavidine-XLent. Therefore, the fluorescence emissions at 620 nm and 665 nm after excitation at 350 nm are measured in an HTRF reader, e.g. Rubystar (BMG Lab-technologies, Offenburg, Germany) or Viewlux (Perkin-Elmer). […]

Chain of N-terminally His6-tagged recombinant kinase domain of the human c-Met (amino acids 960-1390) (P08581 960-1390): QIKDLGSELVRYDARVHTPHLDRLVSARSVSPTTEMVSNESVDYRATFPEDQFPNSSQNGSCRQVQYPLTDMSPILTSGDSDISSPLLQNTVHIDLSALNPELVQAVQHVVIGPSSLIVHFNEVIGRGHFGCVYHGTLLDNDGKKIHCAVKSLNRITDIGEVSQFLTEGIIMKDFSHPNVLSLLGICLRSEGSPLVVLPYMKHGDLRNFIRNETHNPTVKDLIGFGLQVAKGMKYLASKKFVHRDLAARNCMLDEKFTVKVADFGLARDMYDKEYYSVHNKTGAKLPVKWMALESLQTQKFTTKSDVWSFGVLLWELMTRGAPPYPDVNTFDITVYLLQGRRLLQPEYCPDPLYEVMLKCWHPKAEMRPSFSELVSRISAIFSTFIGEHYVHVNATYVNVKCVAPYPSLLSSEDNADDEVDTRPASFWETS

N#CC1=C(C(F)F)NC(C(F)F)=C(C#N)C1c1cc2c(N)nccc2o1 [Example 18]
IC50: 1.03 µM
